Experimental data reported in PMC6712483, “BlsA Is a Low to Moderate Temperature Blue Light Photoreceptor in the Human Pathogen Acinetobacter baumannii” (Frontiers in Microbiology, 2019).

Target: T1, BlsA (dBlsA, His-BlsA) (Acinetobacter baumannii, UniProt V5VB82)
T1 construct: gene ycgF; short BLUF protein, recombinant His-tag fusion, purified as in Abatedaga et al. 2017; approximately 20 kDa; residues named Tyr7, Gln51, Trp78, Trp92
Assay: cofactor fluorescence emission and anisotropy (steady-state and time-resolved), UV-vis photocycle
Type: binding
Conditions: dark-adapted state; cofactor bound on purification; temperature series, compared with free FAD

T1 sequence (V5VB82 entry or part of it): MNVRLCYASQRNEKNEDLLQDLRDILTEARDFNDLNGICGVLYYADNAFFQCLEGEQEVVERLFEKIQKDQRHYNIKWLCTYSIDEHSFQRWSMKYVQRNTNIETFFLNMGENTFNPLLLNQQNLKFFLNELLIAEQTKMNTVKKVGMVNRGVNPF

## Cc1cc2nc3c(=O)[nH]c(=O)nc-3n(C[C@H](O)[C@H](O)[C@H](O)COP(=O)(O)OP(=O)(O)OC[C@H]3O[C@@H](n4cnc5c(N)ncnc54)[C@H](O)[C@@H]3O)c2cc1C [FAD]
  cofactor fluorescence emission and anisotropy (steady-state and time-resolved),: the steady-state anisotropy of the cofactor in dBlsA solutions is strongly decreased
